The target in assay [1] is recombinant GST-tagged MDM2 (Homo sapiens, UniProt Q00987). Briefly: HTRF assay of interaction between p53 peptide and GST-tagged MDM2. As to conditions: inhibition of GST-MDM2 (160 ng/ml) binding to biotinylated p53-peptide. The essentials:
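Compounds were preincubated with 160 ng/ml GST-MDM2 and 90 nM N-terminally biotinylated p53-like peptide (final) in 20 mM TBS, 0.02% BSA, 1 mM DTT for 1 h at 37 °C. Eu-anti-GST antibody and streptavidin-APC were added for 30 min at room temperature; binding read as TR-FRET at 665 and 615 nm.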

The target of another assay is T1, GST-tagged MDMX (Homo sapiens, UniProt O15151).
T1 sequence (O15151 1-490): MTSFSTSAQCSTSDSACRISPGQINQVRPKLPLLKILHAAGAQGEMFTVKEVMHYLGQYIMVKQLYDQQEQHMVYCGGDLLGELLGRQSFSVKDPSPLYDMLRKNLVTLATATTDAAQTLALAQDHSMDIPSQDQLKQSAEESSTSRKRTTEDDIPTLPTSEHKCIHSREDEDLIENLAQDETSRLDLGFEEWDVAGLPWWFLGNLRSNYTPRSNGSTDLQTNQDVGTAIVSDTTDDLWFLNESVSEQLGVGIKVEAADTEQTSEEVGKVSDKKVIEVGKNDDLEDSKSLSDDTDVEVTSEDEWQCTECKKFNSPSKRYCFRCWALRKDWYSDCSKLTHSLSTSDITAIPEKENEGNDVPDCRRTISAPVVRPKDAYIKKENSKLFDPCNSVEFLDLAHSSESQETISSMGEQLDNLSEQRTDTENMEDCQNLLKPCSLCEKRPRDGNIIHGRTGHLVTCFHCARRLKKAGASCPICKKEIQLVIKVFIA
In words: HTRF binding assay of GST-tagged MDMX to p53 peptide. (TR-FRET usually uses a lanthanide donor and a delayed reading to cut background.)

SMILES strings stand for the structures.

Sequence of recombinant GST-tagged MDM2 (Q00987 whole entry): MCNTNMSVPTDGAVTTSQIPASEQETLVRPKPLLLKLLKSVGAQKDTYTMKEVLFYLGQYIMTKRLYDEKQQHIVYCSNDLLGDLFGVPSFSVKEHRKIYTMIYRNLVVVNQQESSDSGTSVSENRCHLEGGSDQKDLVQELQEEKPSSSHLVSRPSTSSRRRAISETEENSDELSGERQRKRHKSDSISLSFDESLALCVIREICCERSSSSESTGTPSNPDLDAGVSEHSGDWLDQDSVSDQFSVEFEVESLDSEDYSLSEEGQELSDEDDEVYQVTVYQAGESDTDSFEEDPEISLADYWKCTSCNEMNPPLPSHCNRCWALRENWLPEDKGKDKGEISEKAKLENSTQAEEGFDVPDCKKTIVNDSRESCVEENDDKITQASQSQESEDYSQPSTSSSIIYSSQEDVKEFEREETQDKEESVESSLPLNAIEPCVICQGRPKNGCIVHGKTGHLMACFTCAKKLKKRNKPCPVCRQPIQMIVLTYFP

Regarding `CC(C)Oc1cc(Cl)c(S(=O)(=O)N2CCCC2)cc1C1=N[C@@](C)(c2ccc(Cl)cc2)[C@@](C)(c2ccc(Cl)cc2)N1C(=O)N1CCN(CCCS(C)(=O)=O)CC1` [Example 58, [(4S,5R)-2-[4-Chloro-2-isopropoxy-5-(pyrrolidine-1-sulfonyl)-phenyl]-4,5-bis-(4-chloro-phenyl)-4,5-dimethyl-4,5-dihydro-imidazol-1-yl]-[4-(3-methanesulfonyl-propyl)-piperazin-1-yl]-methanone], the IC50 (commonly the concentration that gives 50% inhibition) in assay [1] came to 4.6 nM; on GST-tagged MDMX it was 232 nM.

Consider `CC(C)Oc1cc(Cl)c(S(=O)(=O)N2CCCC2)cc1C1=N[C@@](C)(c2ccc(Cl)cc2)[C@@](C)(c2ccc(Cl)cc2)N1C(=O)N1CCC(CC(N)=O)CC1` [Example 59, 2-{1-[(4S,5R)-2-[4-Chloro-2-isopropoxy-5-(pyrrolidine-1-sulfonyl)-phenyl]-4,5-bis-(4-chloro-phenyl)-4,5-dimethyl-4,5-dihydro-imidazole-1-carbonyl]-piperidin-4-yl}-acetamide], for which the 50% inhibitory concentration (IC50) in assay [1] is 5.8 nM; at GST-tagged MDMX, 195 nM.

Regarding `CC(C)Oc1cc(Cl)c(S(=O)(=O)NC(C)(C)C)cc1C1=N[C@@](C)(c2ccc(Cl)cc2)[C@@](C)(c2ccc(Cl)cc2)N1C(=O)N1CCC(CC(N)=O)CC1` [Example 60, 2-{1-[(4S,5R)-2-(5-tert-Butylsulfamoyl-4-chloro-2-isopropoxy-phenyl)-4,5-bis-(4-chloro-phenyl)-4,5-dimethyl-4,5-dihydro-imidazole-1-carbonyl]-piperidin-4-yl}-acetamide], the IC50 in assay [1] turned out to be 15 nM; on GST-tagged MDMX, 570 nM.

Consider `CC(C)Oc1cc(Cl)c(S(=O)(=O)N2C[C@H]3CC[C@@H](C2)O3)cc1C1=N[C@@](C)(c2ccc(Cl)cc2)[C@@](C)(c2ccc(Cl)cc2)N1C(=O)N1CCC(CC(N)=O)CC1` [Example 61, 2-{1-[(4S,5R)-2-{4-Chloro-2-isopropoxy-5-[(1R,5S)-(8-oxa-3-aza-bicyclo[3.2.1]oct-3-yl)sulfonyl]-phenyl}-4,5-bis-(4-chloro-phenyl)-4,5-dimethyl-4,5-dihydro-imidazole-1-carbonyl]-piperidin-4-yl}-acetamide], for which the results for the IC50 (in assay [1]; on GST-tagged MDMX) were 9.1 nM and 267 nM, respectively.

On to `CC(C)Oc1cc(Cl)c(S(=O)(=O)N2C[C@H]3CC[C@@H](C2)O3)cc1C1=N[C@@](C)(c2ccc(Cl)cc2)[C@@](C)(c2ccc(Cl)cc2)N1C(=O)N1CCN(CCCS(C)(=O)=O)CC1` [Example 62, [(4S,5R)-2-{4-Chloro-2-isopropoxy-5-[(1R,5S)-(8-oxa-3-aza-bicyclo[3.2.1]oct-3-yl)sulfonyl]-phenyl}-4,5-bis-(4-chloro-phenyl)-4,5-dimethyl-4,5-dihydro-imidazol-1-yl]-[4-(3-methanesulfonyl-propyl)-piperazin-1-yl]-methanone], for which the IC50 stood at 4.8 nM in assay [1] and 193 nM on GST-tagged MDMX.

For the compound `CC(C)Oc1cc(Cl)c(S(=O)(=O)NC(C)(C)C)cc1C1=N[C@@](C)(c2ccc(Cl)cc2)[C@@](C)(c2ccc(Cl)cc2)N1C(=O)N1CCN(CCCS(C)(=O)=O)CC1` [Example 63, 5-{(4S,5R)-4,5-Bis-(4-chloro-phenyl)-1-[4-(3-methanesulfonyl-propyl)-piperazine-1-carbonyl]-4,5-dimethyl-4,5-dihydro-1H-imidazol-2-yl}-N-tert-butyl-2-chloro-4-isopropoxy-benzenesulfonamide], the IC50 is 4.4 nM in assay [1] and 212 nM on GST-tagged MDMX.

As to `CC(C)Oc1cc(Cl)c(S(N)(=O)=O)cc1C1=N[C@@](C)(c2ccc(Cl)cc2)[C@@](C)(c2ccc(Cl)cc2)N1C(=O)N1CCC(CC(N)=O)CC1` [Example 64, 2-{1-[(4S,5R)-2-(4-Chloro-2-isopropoxy-5-sulfamoyl-phenyl)-4,5-bis-(4-chloro-phenyl)-4,5-dimethyl-4,5-dihydro-imidazole-1-carbonyl]-piperidin-4-yl}-acetamide], the concentration for half-maximal inhibition (IC50) in assay [1] was determined as 6.2 nM; at GST-tagged MDMX it was 283 nM.

Consider `CC(C)Oc1cc(Cl)c(S(N)(=O)=O)cc1C1=N[C@@](C)(c2ccc(Cl)cc2)[C@@](C)(c2ccc(Cl)cc2)N1C(=O)N1CCN(CCCS(C)(=O)=O)CC1` [Example 65, 5-{(4S,5R)-4,5-Bis-(4-chloro-phenyl)-1-[4-(3-methanesulfonyl-propyl)-piperazine-1-carbonyl]-4,5-dimethyl-4,5-dihydro-1H-imidazol-2-yl}-2-chloro-4-isopropoxy-benzenesulfonamide], for which the 50% inhibitory concentration (IC50) in assay [1] was found to be 7.7 nM; at GST-tagged MDMX, 337 nM.

The values are drawn from patent US20140148443A1, “Novel Imidazolines as dual inhibitors of MDM2 and MDMX” (priority 2012, published 2014).
